# Assay results reported in PMC10815238, “New N-Terminal Fatty-Acid-Modified Melittin Analogs with Potent Biological Activity” (International Journal of Molecular Sciences, 2024).
# Tests used:
# [1] = Hydrophobicity assay (RP-HPLC retention time); type: physicochemical; settings: chromatographic, ChromCore120 C18 column 4.6 x 250 mm 5 μm; 0.1 mg/mL in deionized water; A 0.1% TFA in water, B 0.1% TFA in acetonitrile; 5% B to 90% B over 30 min; 1 mL/min; UV 220 nm; three independent experiments
# From the text: The hydrophobicity, amphipathicity, and positive charge distribution of lipopeptides are crucial for their antimicrobial activities. Among these, hydrophobicity has been deemed essential for promoting a hydrophobic interaction with the lipid bilayer, leading to membrane disruption, cytoplasm leakage, and eventual cell death. Lipopeptides with different peptide sequences and chain lengths usually show different hydrophobicities, generating different RTs in the RP-HPLC analysis. The more hydrophobic the lipopeptide, the longer the RT on the column.
# Each MDL was dissolved and diluted to 0.1 mg/mL in deionized water (obtained in-house) and then subjected to RP-HPLC on a ChromCore120 C18 column (4.6 × 250 mm, 5 μm) (NanoChrom, Suzhou, China) using 0.1% trifluoroacetic acid (TFA) (Macklin, Shanghai, China) in water as solvent A and 0.1% TFA in acetonitrile (Merck, Darmstadt, Germany) as solvent B. The elution gradient was as follows: 5% B to 90% B over 30 min, 90% B maintained for 2 min, and 90% B to 5% B over 1 min. The flow rate was 1 mL/min and measurements were taken at 220 nm. The retention time was recorded for each MDL.
# [2] = CD measurements of secondary structure; type: physicochemical; settings: 0.5 mg/mL, 25 °C
# Method: The CD spectra of the MDLs were measured at 25 °C on a Chirascan spectrometer (Applied Photophysics, Surrey, UK) using a quartz cell with a 1.0 mm path length, recording from 180 to 260 nm. A scanning speed of 50 nm/min was used and the bandwidth was 1 nm. The optical path and slit width were 0.1 cm and 0.1 nm, respectively. […], 50% TFE (Macklin, Shanghai, China) was used to mimic the hydrophobic condition of the microbial membrane, and 25 mM SDS (Macklin, Shanghai, China) micelles were used to mimic the negatively charged prokaryotic membrane. The observed ellipticity was converted to molar ellipticity using the following equation: θ=θobs(MRW/10×c×l) where [θ] is the molar ellipticity (deg·cm^2·dmol^−1), θobs is the observed ellipticity corrected for the buffer at a given wavelength (mdeg), MRW is the mean residual molecular weight (molecular weight/number of amino acids), c is the peptide concentration (mg/mL), and l is the path length (cm). Assuming lipopeptides were a two-state model, the percentage in the α-helix structure of the MDLs was calculated using the following equation: α-helical content=−([θ]222 +2000)/30,000×100%
# E. coli ATCC 25922 = assay: Salt sensitivity (MIC in the presence of physiological salts); type: cell-based, Escherichia coli; set-up: key to MIC, NaCl / MIC, KCl / MIC, MgCl2: MIC in μg/mL (two-fold dilutions 256 to 0.25 μg/mL); settings: for MIC, MgCl2: 1 mM MgCl2, unit not given in Table 4; for MIC, FeCl3: 4 mM FeCl3, unit not given in Table 4; for MIC, KCl: 4.5 mM KCl; for MIC, KCl / MIC, NaCl: unit not given in Table 4; for MIC, NaCl: 150 mM NaCl; for MIC, Control: no added salt, unit not given in Table 4 (Table 3 MIC in μg/mL)
# Method: (§1) MIC was determined using the broth microdilution method with minor modification. In brief, bacteria (S. aureus ATCC 43300, E. faecalis ATCC 29212, E. coli ATCC 25922, P. aeruginosa ATCC 27853, L. monocytogenes CVCC 3764, B. cereus CVCC 4101, S. Castellani CGMCC 1.1869, and the multidrug-resistant E. coli strain) were cultured in nutrient broth (NB) medium (Macklin, Shanghai, China) to the logarithmic phase and diluted to 1 × 10^6 colony forming units (CFUs)/mL. The MDLs were dissolved to a final concentration of 256~0.25 μg/mL in NB medium using two-fold dilutions. A total of 50 μL of different concentrations of the MDL solutions and an equal volume of bacterial suspension were added to a 96-well plate, which was then incubated at 37 °C for 18 h. The minimum concentrations of the MDLs with no visible growth of bacteria were defined as the corresponding MICs. Media containing bacteria without the MDLs were set as the negative control. Each measurement was performed independently three times.
# (§2) This was carried out in triplicate and tested at least twice.
# S. aureus ATCC 43300 = assay: as above; type: cell-based, Staphylococcus aureus; set-up: key: MIC in μg/mL (two-fold dilutions 256 to 0.25 μg/mL); settings: for MIC, MgCl2: 1 mM MgCl2, unit not given in Table 4; for MIC, FeCl3: 4 mM FeCl3, unit not given in Table 4; for MIC, NaCl: 150 mM NaCl; for MIC, NaCl / MIC, KCl: unit not given in Table 4; for MIC, Control: no added salt, unit not given in Table 4 (Table 3 MIC in μg/mL); for MIC, KCl: 4.5 mM KCl
# Method: as §1, §2
smiles,measurement,setting,value
CCCCCCCC(=O)NCC(=O)N[C@H](C(=O)NCC(=O)N[C@@H](C)C(=O)N[C@H](C(=O)N[C@@H](CC(C)C)C(=O)N[C@@H](CCCCN)C(=O)N[C@H](C(=O)N[C@@H](CC(C)C)C(=O)N[C@H](C(=O)N[C@H](C(=O)NCC(=O)N[C@@H](CC(C)C)C(=O)N1CCC[C@H]1C(=O)N[C@@H](C)C(=O)N[C@@H](CC(C)C)C(=O)N[C@H](C(=O)N[C@@H](CO)C(=O)N[C@@H](Cc1c[nH]c2ccccc12)C(=O)N[C@H](C(=O)N[C@@H](CCCCN)C(=O)N[C@@H](CCCNC(=N)N)C(=O)N[C@@H](CCCCN)C(=O)N[C@@H](CCCNC(=N)N)C(=O)N[C@@H](CCC(N)=O)C(=O)N[C@@H](CCC(N)=O)C(N)=O)[C@@H](C)CC)[C@@H](C)CC)[C@@H](C)O)[C@@H](C)O)C(C)C)C(C)C)[C@@H](C)CC [Peptide C8-Mel],"RT, Min (RP-HPLC retention time, measure of hydrophobicity)",[1],17.845 ± 0.013 min
same,"α-Helix, %",[2]; 25 mM SDS,18.2%
same,"α-Helix, %",[2]; 50% TFE,18.8%
same,"α-Helix, %",[2]; PBS Buffer,7%
same,"MIC, MgCl2",E. coli ATCC 25922,8
same,"MIC, FeCl3",E. coli ATCC 25922,8
same,"MIC, KCl",E. coli ATCC 25922,8
same,"MIC, NaCl",E. coli ATCC 25922,2
same,"MIC, Control",E. coli ATCC 25922,2
same,"MIC, MgCl2",S. aureus ATCC 43300,8
same,"MIC, FeCl3",S. aureus ATCC 43300,8
same,"MIC, NaCl",S. aureus ATCC 43300,0.5
same,"MIC, Control",S. aureus ATCC 43300,0.5
CCCC(=O)NCC(=O)N[C@H](C(=O)NCC(=O)N[C@@H](C)C(=O)N[C@H](C(=O)N[C@@H](CC(C)C)C(=O)N[C@@H](CCCCN)C(=O)N[C@H](C(=O)N[C@@H](CC(C)C)C(=O)N[C@H](C(=O)N[C@H](C(=O)NCC(=O)N[C@@H](CC(C)C)C(=O)N1CCC[C@H]1C(=O)N[C@@H](C)C(=O)N[C@@H](CC(C)C)C(=O)N[C@H](C(=O)N[C@@H](CO)C(=O)N[C@@H](Cc1c[nH]c2ccccc12)C(=O)N[C@H](C(=O)N[C@@H](CCCCN)C(=O)N[C@@H](CCCNC(=N)N)C(=O)N[C@@H](CCCCN)C(=O)N[C@@H](CCCNC(=N)N)C(=O)N[C@@H](CCC(N)=O)C(=O)N[C@@H](CCC(N)=O)C(N)=O)[C@@H](C)CC)[C@@H](C)CC)[C@@H](C)O)[C@@H](C)O)C(C)C)C(C)C)[C@@H](C)CC [Peptide C4-Mel],"RT, Min (RP-HPLC retention time, measure of hydrophobicity)",[1],13.704 ± 0.005 min
same,"α-Helix, %",[2]; 25 mM SDS,19.3%
same,"β-Fold, %",[2]; 25 mM SDS,23.8%
same,"α-Helix, %",[2]; 50% TFE,20.7%
same,"β-Fold, %",[2]; 50% TFE,25.4%
same,"α-Helix, %",[2]; PBS Buffer,6.1%
same,"β-Fold, %",[2]; PBS Buffer,33.7%
same,"MIC, MgCl2",E. coli ATCC 25922,32
same,"MIC, FeCl3",E. coli ATCC 25922,32
same,"MIC, KCl",E. coli ATCC 25922,16
same,"MIC, NaCl",E. coli ATCC 25922,8
same,"MIC, Control",E. coli ATCC 25922,8
same,"MIC, MgCl2",S. aureus ATCC 43300,16
same,"MIC, FeCl3",S. aureus ATCC 43300,16
same,"MIC, KCl",S. aureus ATCC 43300,4
same,"MIC, NaCl",S. aureus ATCC 43300,2
same,"MIC, Control",S. aureus ATCC 43300,2
CCCCCCCCCC(=O)NCC(=O)N[C@H](C(=O)NCC(=O)N[C@@H](C)C(=O)N[C@H](C(=O)N[C@@H](CC(C)C)C(=O)N[C@@H](CCCCN)C(=O)N[C@H](C(=O)N[C@@H](CC(C)C)C(=O)N[C@H](C(=O)N[C@H](C(=O)NCC(=O)N[C@@H](CC(C)C)C(=O)N1CCC[C@H]1C(=O)N[C@@H](C)C(=O)N[C@@H](CC(C)C)C(=O)N[C@H](C(=O)N[C@@H](CO)C(=O)N[C@@H](Cc1c[nH]c2ccccc12)C(=O)N[C@H](C(=O)N[C@@H](CCCCN)C(=O)N[C@@H](CCCNC(=N)N)C(=O)N[C@@H](CCCCN)C(=O)N[C@@H](CCCNC(=N)N)C(=O)N[C@@H](CCC(N)=O)C(=O)N[C@@H](CCC(N)=O)C(N)=O)[C@@H](C)CC)[C@@H](C)CC)[C@@H](C)O)[C@@H](C)O)C(C)C)C(C)C)[C@@H](C)CC [Peptide C10-Mel],"RT, Min (RP-HPLC retention time, measure of hydrophobicity)",[1],20.541 ± 0.029 min
same,"α-Helix, %",[2]; 25 mM SDS,17.1%
same,"β-Fold, %",[2]; 25 mM SDS,28.8%
same,"α-Helix, %",[2]; 50% TFE,18.4%
same,"β-Fold, %",[2]; 50% TFE,22.1%
same,"α-Helix, %",[2]; PBS Buffer,7.5%
same,"β-Fold, %",[2]; PBS Buffer,41.1%
same,"MIC, MgCl2",E. coli ATCC 25922,32
same,"MIC, FeCl3",E. coli ATCC 25922,32
same,"MIC, KCl",E. coli ATCC 25922,16
same,"MIC, NaCl",E. coli ATCC 25922,8
same,"MIC, Control",E. coli ATCC 25922,8
same,"MIC, MgCl2",S. aureus ATCC 43300,32
same,"MIC, FeCl3",S. aureus ATCC 43300,32
same,"MIC, KCl",S. aureus ATCC 43300,8
same,"MIC, NaCl",S. aureus ATCC 43300,2
same,"MIC, Control",S. aureus ATCC 43300,2
CCCCCCCCCCCCCCCC(=O)NCC(=O)N[C@H](C(=O)NCC(=O)N[C@@H](C)C(=O)N[C@H](C(=O)N[C@@H](CC(C)C)C(=O)N[C@@H](CCCCN)C(=O)N[C@H](C(=O)N[C@@H](CC(C)C)C(=O)N[C@H](C(=O)N[C@H](C(=O)NCC(=O)N[C@@H](CC(C)C)C(=O)N1CCC[C@H]1C(=O)N[C@@H](C)C(=O)N[C@@H](CC(C)C)C(=O)N[C@H](C(=O)N[C@@H](CO)C(=O)N[C@@H](Cc1c[nH]c2ccccc12)C(=O)N[C@H](C(=O)N[C@@H](CCCCN)C(=O)N[C@@H](CCCNC(=N)N)C(=O)N[C@@H](CCCCN)C(=O)N[C@@H](CCCNC(=N)N)C(=O)N[C@@H](CCC(N)=O)C(=O)N[C@@H](CCC(N)=O)C(N)=O)[C@@H](C)CC)[C@@H](C)CC)[C@@H](C)O)[C@@H](C)O)C(C)C)C(C)C)[C@@H](C)CC [Peptide C16-Mel],"RT, Min (RP-HPLC retention time, measure of hydrophobicity)",[1],26.892 ± 0.005 min
same,"α-Helix, %",[2]; 25 mM SDS,15.2%
same,"β-Fold, %",[2]; 25 mM SDS,33%
same,"α-Helix, %",[2]; 50% TFE,14.3%
same,"β-Fold, %",[2]; 50% TFE,26.8%
same,"α-Helix, %",[2]; PBS Buffer,12.5%
same,"β-Fold, %",[2]; PBS Buffer,30.4%
same,"MIC, MgCl2",E. coli ATCC 25922,>256
same,"MIC, FeCl3",E. coli ATCC 25922,>256
same,"MIC, KCl",E. coli ATCC 25922,256
same,"MIC, NaCl",E. coli ATCC 25922,>256
same,"MIC, Control",E. coli ATCC 25922,128
same,"MIC, MgCl2",S. aureus ATCC 43300,>256
same,"MIC, FeCl3",S. aureus ATCC 43300,>256
same,"MIC, KCl",S. aureus ATCC 43300,256
same,"MIC, NaCl",S. aureus ATCC 43300,128
same,"MIC, Control",S. aureus ATCC 43300,64
